Experiments:
[1] = Body weight change after five-day ketone ester drink regime; assay type: in vivo, human; details: 393 mg/kg body weight 3 times per day for 5 days
Method: Three obese subjects (BMI 33±3 kg/m^2) and seven lean subjects (BMI 23±2 kg/m^2), matched for age, gender, diabetes duration, treatment and HBA1c, underwent a ^1H-MRS scan for quantification of liver steatosis. All subjects were weighed and underwent a treatment regime for five days in which each subject consumed three drinks per day containing 0.393 g/kg body weight of (R)-3-hydroxybutyrate-R-1,3-butanediol monoester, made up to a final volume of 3.3 ml/kg body weight. […] The subjects were not asked to change their normal diet, but did keep diet diaries. Subjects lost 1.3 kg over the five-day period, irrespective of their starting body weight. The weight loss in 7 lean subjects (FIG. 1a) and 3 obese subjects (FIG. 1b) was the same, 1.3 kg, after drinking 393 mg/kg body weight (R)-3-hydroxybutyrate-(R)-1,3 butanediol monoester (ΔG®) 3 times per day for 5 days.

[2] = test system: liver fat; assay: Reduction of liver fat, general statement; assay type: in vivo
[3] = test system: liver fat; assay: 1H Magnetic Resonance Spectroscopy (MRS) of liver, quantification of liver fat; assay type: in vivo, human; details: for liver fat (hepatic triglyceride relative to water): lean subjects; for liver triglyceride level: obese subjects
Method: Three obese subjects (BMI 33±3 kg/m^2) and seven lean subjects (BMI 23±2 kg/m^2), matched for age, gender, diabetes duration, treatment and HBA1c, underwent a ^1H-MRS scan for quantification of liver steatosis. All subjects were weighed and underwent a treatment regime for five days in which each subject consumed three drinks per day containing 0.393 g/kg body weight of (R)-3-hydroxybutyrate-R-1,3-butanediol monoester, made up to a final volume of 3.3 ml/kg body weight. […] Liver ^1H-MRS was performed on each of the subjects at the beginning and end of the 5 days to determine the change in liver fat. The ^1H-MRS measurements were carried out on a 3 T Siemens Tim Trio using a whole-body coil and 6-channel anterior plus 24-channel posterior phased-array coils for signal receiving. To obtain hepatic ^1H-MRS, an 8-ml voxel (2×2×2) was positioned in the liver, avoiding gross vascular, biliary structures and adipose tissue depots. Spectra, with and without water suppression, were obtained to calculate hepatic triglyceride content as a percentage relative to water (triglyceride/water×100). A calibration pulse sequence was implemented to evaluate the optimal water suppression pulse scaling factor. Individual coil signals were combined within Matlab using specifically written modules. The water-suppressed scans were constructively averaged, including frequency correction. Spectra were quantified using the Advanced Method of Accurate, Robust and Efficient Spectroscopic ([…]) fitting algorithm. Metabolite peaks (including lipid/triglycerides) were analyzed and prior knowledge was used for all peak locations by using soft constraints. All peaks were fitted using Lorentzian lineshapes.

[4] = Blood (R)-3-hydroxybutyrate level after oral administration; assay type: in vivo; details: for circulating levels of (R)-3-hydroxybutyrate in the blood: general statement; for uptake in the gut: upon consumption of a drink
Method: At a dose of 1 g/kg of body weight of the subject, the blood (R)-3-hydroxybutyrate concentration is suitably at least 4 mM, preferably 5 mM. Upon oral administration of monoester of 1.5 g/kg of body weight of the subject, the blood (R)-3-hydroxybutyrate concentration is suitably at least 7 mM, preferably at least 8 mM, especially at least 9 mM. A dosing regime comprises multiple drinks consumed separately.
Blood levels of (R)-3-hydroxybutyrate may be determined by commercially available testing kits, for example, (R)-3-hydroxybutyrate can be measured on whole blood using a handheld monitor and reagent strips (Precision Xtra, Abbott Diabetes Care, UK).

[5] = end of the 5 days, 393 mg/kg 3 times per day

Row | Compound | weight loss ([1]; 3 obese subjects) [kg] | weight loss ([1]; 7 lean subjects) [kg] | effect on liver fat [2] | change in liver fat ([3]; 7 lean subjects, 393 mg/kg 3 times per day for 5 days) | liver fat (hepatic triglyceride relative to water) ([3]; beginning of the 5 days) [%] | liver fat (hepatic triglyceride relative to water) [3, 5] [%] | liver triglyceride level ([3]; beginning of the 5 days) [%] | liver triglyceride level [3, 5] [%] | period of raised (R)-3-hydroxybutyrate concentrations ([4]; compared with ketone salts) | circulating levels of (R)-3-hydroxybutyrate in the blood [4] | uptake in the gut [4]
1 | C[C@@H](O)CCOC(=O)C[C@@H](C)O [(R)-3-hydroxybutyrate (R)-1,3-butanediol monoester] | 1.3 | 1.3 | reduce liver fat | no loss of liver fat | 2.3 | 2.5 | 17.5 | 14.1 | longer period than ketone salts | high circulating levels | surprisingly high level of uptake in the gut
2 | (R)-3-hydroxybutyrate-glycerol partial ester |  |  | reduce liver fat |  |  |  |  |  |  | high circulating levels | surprisingly high level of uptake in the gut

From patent publication US12439944B2, “3-hydroxybutyrate compounds for use in reducing liver fat” (TDeltaS Limited, priority 2017, dated 2025)
